Source: publication PMC10916400, “Effect of the aggregated protein dye YAT2150 on Leishmania parasite viability” (Antimicrobial Agents and Chemotherapy, 2024)

Assays:
[1] = tested on: L. infantum promastigotes; assay: microbe, parasite or virus in culture; type: cell-based, Leishmania infantum; settings: L. infantum promastigotes; for IC50: in vitro
Procedure: L. infantum (MHOM/ES/2016/CATB101) promastigotes were maintained at 26°C in complete Schneider’s medium (Schneider’s insect medium supplemented with 10% FBS, 25 µg/mL gentamycin, 1% penicillin-streptomycin, and 1% sterile human urine, pH 6.7). For growth inhibition assays, promastigotes were used in the logarithmic growth phase, whereas for the infection of macrophages and generation of amastigotes they were used in the stationary phase. Axenic amastigotes were obtained following established protocols ([40], [57][–][59]); briefly, 1 × 10^7 promastigotes/mL in stationary phase were cultured in Schneider’s insect medium supplemented with 20% FBS, 25 µg/mL gentamycin, and 3.9 g/L of 2-(N-morpholino)ethanesulfonic acid, at pH 5.4 and 37°C. After 48 h, the typical rounded morphology of axenic amastigotes and their flagellum shortening could be observed. This culture was used within a week after its preparation.
In 96-well microtiter plates (Nunclon Delta surface; Thermo Fisher Scientific Inc.), serial dilutions (1:2) of the drugs or peptides were performed, either free or loaded in nanoformulations, in 100 µL of complete Schneider’s medium, to which one volume of 2 × 10^6 logarithmic growth-phase L. infantum promastigotes/mL in the same buffer was added. After 48 h, resazurin sodium salt was incorporated at a final concentration of 0.00125% and the plates were incubated at 26°C for another 24 h, when fluorescence from resorufin was measured as described above.

[2] = Caco-2 permeability assay; type: in vitro ADME; settings: human
Procedure: (§1) Caco-2 cells (ATCC under the license of Abcam Inc., doing business as NaviCyte Scientific, Berkeley, CA) cultured to confluency were trypsinized and seeded onto a filter transwell insert (high-throughput screening Transwell 96-well permeable supports; Corning Inc.) at a density of ~10,000 cells/well in Dulbecco’s modified Eagle’s medium (DMEM). Confluent cells were subcultured at passages 58–62 and grown in a humidified atmosphere of 5% CO2 at 37°C. Following an overnight attachment period (24 h after seeding), the cell medium was replaced every other day with fresh medium in both the apical and basolateral compartments. The cell monolayers were used for transport studies 21 days post-seeding, when monolayer integrity was checked by measuring the transepithelial electrical resistance (TEER). If TEER values were ≥500 Ω/cm^2, the medium was removed and the cells were washed twice with pre-warmed (37°C) Hank’s Balanced Salt Solution (HBSS). Compound stock solutions were made in DMSO and further diluted in HBSS (1% final DMSO concentration). All compounds, including controls (colchicine, E3S), were tested at a final concentration of 5 to 10 µM. For A → B directional transport, the donor working solution was added to the apical compartment (A) and HBSS as receiver working solution to the basolateral compartment (B). For B → A directional transport, the donor working solution was added to B and HBSS as receiver working solution to A. The cells were incubated at 37°C for 120 min with gentle stirring. At the end of the incubation, samples were taken from both donor and receiver compartments and transferred into 384-well plates, and compound concentrations were determined by UPLC-MS/MS analysis as for the plasma stability assay.

[3] = tested on: Caco-2 cells; assay: Caco-2 permeability assay; type: in vitro ADME; settings: Caco-2, A→B, 37°C
Procedure: as §1

[4] = Human microsomal stability assay; type: in vitro ADME; settings: 37°C
Procedure: The following components were added in a 96-well microplate in a final volume of 500 µL 50 mM Na/K phosphate buffer, pH 7.4 (stock solutions are indicated in parentheses, dissolved in the same buffer unless otherwise specified): […] NADP (10 mM), 10 µM glucose 6-phosphate (100 mM), […] glucose 6-phosphate dehydrogenase (40 U/mL, dissolved in 5 mM sodium citrate), 3 µM MgCl2·6 H2O (30 mM, dissolved in H2O), 0.8 mg protein/mL of human microsomes (10 mg/mL protein; XenoTech), and 1 µM of test compound (100 µM, dissolved in ACN). Plates were incubated at 37°C and 75 µL samples were taken at 0, 10, 20, 40, and 60 min, to which 75 µL ACN + internal standard (Rolipram) to inactivate the microsomes and 30 µL of 0.5% formic acid in H2O to improve the chromatographic conditions were added, and kept at 4°C. When all the samples were taken, the plate was centrifuged at 46,000 × g for 30 min at 15°C, and UPLC-MS/MS was performed as above, except for the time in 100% B from 1 to 2.5 min, the return to 95% A:5% B from 2.5 to 2.6 min, and the maintenance of this ratio from 2.6 to 3.0 min. Metabolic stability was calculated from the logarithm of the remaining compound at each of the times evaluated.

[5] = Human hepatocyte stability assay; type: in vitro ADME; settings: 37°C
Procedure: A vial of human hepatocytes (100 donor pool HCP100.H15/Lot: 2010012; XenoTech, Kansas City, KS, US) was removed from the liquid nitrogen tank and immersed into a water bath. When only a small ice crystal remained, the cell suspension was transferred to a tube with the preheated suspension medium (OptiThaw hepatocyte medium, K8000; XenoTech). After a brief centrifugation at 100 × g for 5 min, hepatocytes were gently resuspended with incubation medium (OptiIncubate hepatocyte medium, K8400; XenoTech) and counted, and viability was determined using trypan blue staining. One-micromolar compounds were incubated at 37°C and 5% CO2 in the presence of 0.5 × 10^6 hepatocytes in a 500-µL incubation volume. Aliquots were taken, and reactions were terminated with ACN at each of the six sampling time points (0, 15, 30, 60, 90, and 120 min). The samples were centrifuged, and the remaining compound was determined by UPLC-MS/MS analysis as above. Intrinsic clearance was calculated from the logarithm of the remaining compound at each of the times evaluated.

With `CCN(CC)c1ccc(/C=C/c2cc[n+](CCCCCCCCCC[n+]3ccc(/C=C/c4ccc(N(CC)CC)cc4)c(C)c3)cc2C)cc1` [YAT2150] the “in vitro IC10” value [1] was 150 nM, the “in vitro IC40” value [1] was 300 nM and the IC50 [1] was about 500 nM. For the same compound, the IC50 ([1]; Leishmania infantum) was about 520 nM, the Papp A→B at 120 min ([2]; Caco-2, Caco-2, A→B, 37°C) was over 20 ×10⁻⁶ cm/s and the Papp B→A at 120 min ([2]; Caco-2, Caco-2, B→A, 37°C) was about 10 ×10⁻⁶ cm/s. For the same compound, the efflux ratio at 120 min ([2]; Caco-2, Papp BA/Papp AB) was 0.48, the “Papp AB” value [3] was 20.76 ± 2.01 ×10⁻⁶ cm/s and the “t1/2, microsomal stability” value ([4]; human microsomes) was 1.34 h. The remaining at 1 h, 1 µM ([4]; human, microsomes, pH 7.4, human microsomes, after 1 h) was 55%, the half-life at 1 µM ([4]; human, microsomes, pH 7.4, human microsomes, read-out: t1/2, microsomal stability) was 1.33 h and the microsomal CLint at 1 µM ([4]; pH 7.4, human microsomes) was 10.6 µL/min/mg. The hepatocyte CLint at 1 µM ([5]; hepatocytes (cryopreserved, 100 donor pool)) was 2.5 µL/min/1e6 cells, the “t1/2, hepatocyte stability” value ([5]; human hepatocytes) was 4.622 h and the remaining at 2 h, 1 µM ([5]; human, hepatocytes (cryopreserved, 100 donor pool), after 2 h) was 70%. For the same compound, the half-life at 1 µM ([5]; human, hepatocytes (cryopreserved, 100 donor pool), read-out: t1/2, hepatocyte stability) was 4.62 h.
